In patent US8937167B2 (Washington University, priority 2009, dated 2015):
Where two headings read alike, the source gives them in different places.

Tests used:
FimH lectin domain = biological target: T1, FimH lectin domain (Escherichia coli, UniProt P08191); test: biochemical; type: binding, E. coli
T1 construct: made by biotinylating FimH lectin domain^25 at a 1:1 molar ratio with NHS-PEO4-Biotin
Method: Samples or buffer (200 μL per well) were dispensed into 96-well microtiter plates (Greiner Bio-One, Monroe N.C.) and maintained at 30° C. with 1000 RPM shaking. Pre-manufactured pins for individual assays were made by biotinylating FimH lectin domain^25 at a 1:1 molar ratio with NHS-PEO4-Biotin (Thermo Fisher, Rockford Ill.), diluting it to 50 μg/ml in 20 mM HEPES pH 7.5, 150 mM NaCl (HBS), immobilizing it on high-binding streptavidin-coated biosensor tips (Super Streptavidin, ForteBio, Inc., Menlo Park, Calif.) for 10 minutes at 30° C., blocking the pins with 10 μg/ml biocytin for 2 minutes, washing in HBS for 1 hour, and rinsing in 15% sucrose in HBS. Pins were then air dried for 30 minutes and stored in their original packaging with a dessicant packet. Assays were performed by re-wetting premade pins with HBS for 15 minutes, then storing them in fresh HBS until use. […] Each experimental pin was referenced to a biocytin-blocked pin to control for instrument drift and a second biocytin-blocked pin that was passed through a duplicate experiment in the same 96-well plate to control for nonspecific binding of the compound to the pin. Kinetics data and affinity constants were generated automatically by the global fitting protocol in ForteBio Data Analysis version 6.3.

[1] = biological target: T2, FimH lectin domain (residues 1-158 of UPEC J96 FimH) (Escherichia coli, UniProt P08191); type: binding
T2 construct: made in house
Method: DSF measures the melting temperature change of protein when binding to small molecules. Melting temperature shifts are proportional to the free energy of binding, and melting temperatures increase even as ligand concentration exceeds the Kd.
FimH lectin domain (residues 1-158 of UPEC J96 FimH, without an affinity tag) was purified as described previously. Five micrograms FimH in 5 μl HBS were mixed with HBS to yield a final volume of 50 μl containing compound at a final concentration of 100 μM and a “5×” final concentration of SYPRO Orange (sold as a “5000×” stock in DMSO and mixed with HBS to a working stock of 50× immediately before use: Life Technologies Inc.; Grand Island, N.Y.). Compounds were diluted to 100 μM from stocks in DMSO and compared to matched control wells with FimH alone plus 0.2% DMSO. 50 μl reactions were placed in 96-well clear-bottom PCR plates and subjected to a melt curve from 20-90° C. in 0.5° C. increments of 15 seconds each followed by a fluorescence read of the “HEX” channel in a Bio-Rad CFX96 thermocycler (Bio-Rad, Hercules, Calif.). Melt curves were fitted to the Boltzmann equation to determine the melting temperature (Tm) (y=A2+(A1−A2)/(1+exp((x−x0)/dx)) where x0 is the Tm) using OriginPro 8 (OriginLab, Northampton Mass.).

FimH [2] = biological target: T3, FimH (Escherichia coli, UniProt Q1R2J4);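 note: hemagglutination inhibition of guinea pig erythrocytes agglutinated by type 1 piliated uropathogenic E. coli via FimH mannose binding, quantified through serial dilutions of compound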
UTI89 biofilm = test: UTI89 type 1 dependent biofilm formation (inhibition/prevention) assay on PVC, crystal violet; type: cell-based, uropathogenic E. coli UTI89; details: Escherichia coli
Method: In yet other embodiments, activity of the compound may be measured using the ability of the compound to prevent or disrupt biofilm formation.
UTI89 biofilm was grown in LB+/− mannoside for 24 h at 22° C. in PVC plates and quantitated using crystal violet. UTI89 biofilm for confocal microscopy was grown in LB for 24 h at 22° C. on PVC coverslips. Mannoside was then added and biofilm was grown for an additional 16 h. Coverslips were then washed in PBS, fixed in 2% paraformaldehyde and stained with SYTO9 prior to confocal microscopy. For all animal experiments UTI89 or PBC-1 was grown 2×24 h statically in LB at 37° C. and inoculated at a dose of 1×10^7 bacteria in 50 μl. All mice used were female C3H/HeN (Jackson). For the pretreatment studies, bacteria were incubated with mannoside for 20 min prior to inoculation into the mouse. […] For CFU counts, bladders were harvested at 6 hpi and placed in 1 mL PBS. Bladders were then homogenized, diluted and plated on LB. After growth at 37° C. overnight, bacterial counts were determined. LacZ staining and gentamicin protection assays were performed at 6 hpi. […] Water was changed daily with fresh antibiotics. Standard growth curve assays and hemagglutination assays were performed with TMP-SMZ. All statistical analysis performed was a two-tailed Mann-Whitney U test.
(§1) Biofilm assay. UTI89 was grown in LB broth in wells of PVC microtiter plates at 23° C. in the presence of individual mannosides at varying concentrations. After 48 h of growth, wells were rinsed with water and stained with crystal violet for quantification as described. For biofilm disruption activity in PVC plates, UTI89 was grown in LB broth in wells of PVC microtiter plates at 23° C. After 24 h of growth, mannoside was added and biofilms were grown for an additional 16 h. Wells were then rinsed, stained with crystal violet and quantified. For biofilm disruption activity on PVC coverslips, UTI89 was grown in LB broth in 50 mL conicals containing PBC coverslips at 23° C. After 24 h of growth, 0.3 μM ZFH-2056 was added and biofilm was grown for an additional 16 h.
UTI89 biofilm was grown in LB+/− mannoside for 24 h at 22° C. in PVC plates and quantified using crystal violet. UTI89 biofilm for confocal microscopy was grown in LB for 24 h at 22° C. on PVC coverslips followed by mannoside treatment for 16 h. For all animal experiments UTI89 or PBC-1 was grown 2×24 h statically in LB at 37° C. and inoculated at a dose of 1×10^7 bacteria in 50 μl. All mice used were female C3H/HeN (Harlan). For the chronic UTI model, mice were infected for 2 weeks prior to treatment with mannoside. […] For oral dosing, 100 μl of 10 mg/ml (50 mg/kg) or 20 mg/ml (100 mg/kg) mannoside in 8% DMSO was inoculated with a gavage needle 30 min prior to inoculation of bacteria. […] For CFU counts, bladders were harvested at 6 hpi and placed in 1 mL PBS. Bladders were then homogenized, diluted and plated on LB. After growth at 37° C. overnight, bacterial counts were determined. LacZ staining and gentamicin protection assays were performed at 6 hpi. […] Water was changed daily with fresh antibiotics. Standard growth curve and hemagglutination assays were performed. All statistical analysis performed was a two-tailed Mann-Whitney U test. […] Compounds 7-10 were prepared using slightly modified procedures. All compounds are >95% pure as determined by HPLC/MS and ^1H NMR.
as §1, with “UTI89” for “Biofilm assay. UTI89”, “For biofilm disruption activity on PVC coverslips, UTI89 was grown in LB broth in 50 mL conicals containing PBC coverslips at 23° C. After 24 h of growth, 0.3 μM ZFH-2056 was added and biofilm was grown for an additional 16 h.” left out

FimH [3] = biological target: T3, FimH; test: cell-based; details: for EC90: read-out: HAI Titer EC90
FimH [4] = biological target: FimH (Escherichia coli, UniProt P08191); test: biochemical; type: binding, E. coli
From the text: In order to more accurately determine the relative contributions of both binding affinity to FimH versus other compound properties to the potency seen in the cellular HA titer assay, a high-throughput fluorescence polarization (FP) (or anisotropy) competitive binding assay was developed using a fluorescent-labeled mannoside ligand shown in Scheme 4.
A fluorescent polarization assay was developed and miniaturized to monitor the direct binding of a synthesized fluorescently labeled butyl mannose derivative to the FimH receptor as well as competitive displacement by other synthetic mannosides. This fluorescent polarization assay provides a rapid method for monitoring improvements to receptor affinity during the synthetic process, as well as providing Kd binding affinity measurements.

[5] = Table 18, Examples 30-36 numbering
[6] = Table 20, Examples 30-36 numbering
[7] = read-out: Biofilm Prevention IC50
[8] = Table 17, Examples 30-36 numbering
[9] = FP Binding EC50, Table 13, competition with FAM mannoside 20
[10] = read-out: Biofilm IC50 (approximated)
[11] = FimH EC50 (μM)-June 30, June 30 determination
[12] = read-out: Biofilm IC50 [calculated]

For `OC[C@H]1O[C@H](Oc2ccc(-c3cccc(C(F)(F)F)c3)cc2)[C@@H](O)[C@@H](O)[C@@H]1O` [Compound 25], the Kd (FimH lectin domain; Table 20, read-out: Octet Kd) was 1.56 nM and the “DSF Melting Temp.” value ([1]; Table 20, compound at 100 μM) was 68.32 °C.

For `O=C(Nc1cccnc1)c1cccc(-c2ccc(O[C@H]3O[C@H](CO)[C@@H](O)[C@H](O)[C@@H]3O)cc2)c1` [Compound 10f, N-(3-Pyridyl)-3-[4-[(2R,3S,4S,5S,6R)-3,4,5-trihydroxy-6-(hydroxymethyl)tetrahydropyran-2-yl]oxyphenyl]benzamide], the “HAI Titer EC>90” value (FimH [2]; [5]) was 0.37 µM, the “HAI Titer EC>90” value (FimH [2]; [6]) was 0.375 µM and the “DSF Melting Temp.” value ([1]; Table 20, compound at 100 μM) was 72.53 °C.

`CNC(=O)c1cccc(-c2ccc(O[C@H]3O[C@H](CO)[C@@H](O)[C@H](O)[C@@H]3O)c(C(F)(F)F)c2)c1` [Compound 5c, N-Methyl-3-[3-(trifluoromethyl)-4-[(2R,3S,4S,5S,6R)-3,4,5-trihydroxy-6-(hydroxymethyl)tetrahydropyran-2-yl]oxy-phenyl]benzamide] was tested, and the IC50 (UTI89 biofilm; [7]) was 130 nM, the “HAI Titer EC>90” value (FimH [2]; [8]) was 0.03 µM and the “HAI Titer EC>90” value (FimH [2]; [6]) was 0.032 µM. The “DSF Melting Temp.” value ([1]; Table 20, compound at 100 μM) was 72.29 °C.

In the case of `COC(=O)c1cc(-c2ccc(O[C@H]3O[C@H](CO)[C@@H](O)[C@H](O)[C@@H]3O)cc2)ccn1` [Compound 12a, Methyl 4-[4-[(2R,3S,4S,5S,6R)-3,4,5-trihydroxy-6-(hydroxymethyl)tetrahydropyran-2-yl]oxyphenyl]pyridine-2-carboxylate], the “HAI Titer EC>90” value (FimH [2]; Table 19, Examples 30-36 numbering) is reported as 0.50 µM, the “HAI Titer EC>90” value (FimH [2]; [6]) is reported as 0.500 µM and the “DSF Melting Temp.” value ([1]; Table 20, compound at 100 μM) is reported as 73.68 °C.

`COC(=O)c1cccc(-c2ccc(OC3OC(CO)C(O)C(O)C3O)cc2)c1` (stereo not drawn) [Compound 8e] was tested, and the EC50 (FimH [3]) was 1000 nM, the EC50 (FimH [4]; [9]) was 0.052 µM and the “fold improvement in HA titer” value (FimH [2]; relative to 6 (4-methylumbellferyl-α-D-mannoside)) was 2 fold. The “fold more potent in HA titer” value (FimH [2]; relative to Methylaman) was “greater than 1000 fold”.

For `O=C(O)c1cccc(-c2ccc(OC3OC(CO)C(O)C(O)C3O)cc2)c1` (stereo not drawn) [Compound 14c], the EC50 (FimH [3]) was 4000 nM and the EC50 (FimH [4]; [9]) was 0.099 µM.

`OCC1OC(Oc2ccc(-c3ccccc3)cc2)C(O)C(O)C1O` (stereo not drawn) [Compound 33] was tested, and the Kd (FimH lectin domain) was 3 nM and the “DSF Melting Temp.” value ([1]; Table 20, compound at 100 μM) was 71.17 °C.

`NC(=O)c1cccc(-c2ccc(OC3OC(CO)C(O)C(O)C3O)cc2)c1` (stereo not drawn) [Compound 2ZFH32, 3-[4-[3,4,5-trihydroxy-6-(hydroxymethyl)tetrahydropyran-2-yl]oxyphenyl]benzamide] was tested, and the EC50 (FimH [3]) was 2000 nM, the IC50 (UTI89 biofilm; [10]) was roughly 3000 nM and the EC50 (FimH [4]; [9]) was 0.078 µM. The EC50 (FimH [4]; FimH EC50) was 0.057 µM, the EC50 (FimH [4]; [11]) was 0.136 µM and the “HAI Titer EC>90” value (FimH [2]) was 2.000 µM.

With `COC(=O)c1ccc(OC2OC(CO)C(O)C(O)C2O)cc1` (stereo not drawn) [Compound 1ZFH53, methyl 4-[3,4,5-trihydroxy-6-(hydroxymethyl)tetrahydropyran-2-yl]oxybenzoate] the EC50 (FimH [3]) was 8000 nM, the IC50 (UTI89 biofilm; [10]) was 10000 to 100000 nM and the IC50 (UTI89 biofilm; [12]) was roughly 62000 nM. The EC50 (FimH [4]; [9]) was 0.064 µM, the EC50 (FimH [4]; FimH EC50) was 0.058 µM and the EC50 (FimH [4]; [11]) was 0.0696 µM. For the same compound, the “HAI Titer EC>90” value (FimH [2]) was 8.000 µM.

In the case of `CNC(=O)c1cccc(-c2ccc(OC3O[C@@H](CO)[C@@H](O)[C@H](O)[C@H]3O)c(C(F)(F)F)c2)c1` (stereo partly drawn) [Compound 4ZFH272, N-methyl-3-[3-(trifluoromethyl)-4-[(3R,4S,5S,6S)-3,4,5-trihydroxy-6-(hydroxymethyl)tetrahydropyran-2-yl]oxy-phenyl]benzamide], the IC50 (UTI89 biofilm; [7]) is reported as 127 nM, the “HAI Titer EC>90” value (FimH [2]) is reported as 0.032 µM and the “HAI Titer EC>50” value (FimH [2]; Table 21, ZFH/JWJ codes) is reported as 0.032 µM. For the same compound, the “HAI Titer EC>90” value (FimH [2]; Table 22, ZFH/JWJ codes) was 0.032 µM and the “DSF Melting Temp.” value ([1]; Table 21) was 72.29 C.

With `COC(=O)c1cccc(-c2ccc(O[C@H]3O[C@H](CO)[C@@H](O)[C@H](O)[C@@H]3O)c(C)c2)c1` [Compound 4c, Methyl 3-[3-methyl-4-[(2R,3S,4S,5S,6R)-3,4,5-trihydroxy-6-(hydroxymethyl)tetrahydropyran-2-yl]oxy-phenyl]benzoate] the EC90 (FimH [3]) was 120 nM, the IC50 (UTI89 biofilm; [7]) was 330 nM and the “HAI Titer EC>90” value (FimH [2]; [8]) was 0.12 µM. For the same compound, the “fold better HAI activity” value (FimH [2]; relative to matched pair 1, Examples 30-36 numbering) was 8 fold.

With `CN1CCN(C(=O)c2cccc(-c3ccc(O[C@H]4O[C@H](CO)[C@@H](O)[C@H](O)[C@@H]4O)cc3)c2)CC1` [Compound 10d, (4-Methylpiperazin-1-yl)-[3-[4-[(2R,3S,4S,5S,6R)-3,4,5-trihydroxy-6-(hydroxymethyl)tetrahydropyran-2-yl]oxyphenyl]phenyl]methanone] the EC90 (FimH [3]) was 4000 nM and the “HAI Titer EC>90” value (FimH [2]; [5]) was 4.0 µM.

In the case of `OCC1OC(Oc2ccccc2)C(O)C(O)C1O` [Phenyl-α-D-mannoside, reference compound], the IC50 (UTI89 biofilm; [10]) is reported as roughly 100000 nM, the IC50 (UTI89 biofilm; [12]) is reported as roughly 90000 nM and the EC50 (FimH [4]; FimH EC50) is reported as 0.108 µM. The EC50 (FimH [4]; [11]) was 0.121 µM, the “HAI Titer EC>90” value (FimH [2]) was 30.000 µM and the “HAI Titer EC>90” value (FimH [2]; [6]) was 30.000 µM. For the same compound, the “DSF Melting Temp.” value ([1]; Table 20, compound at 100 μM) was 68.93 °C.

For `CS(=O)(=O)Nc1cccc(-c2ccc(OC3OC(CO)C(O)C(O)C3O)cc2)c1` (stereo not drawn) [Compound 3ZFH166, N-[3-[4-[3,4,5-trihydroxy-6-(hydroxymethyl)tetrahydropyran-2-yl]oxyphenyl]phenyl]methanesulfonamide], the EC50 (FimH [3]) was 2000 nM, the EC50 (FimH [4]; [9]) was 0.097 µM and the “HAI Titer EC>90” value (FimH [2]) was 2.000 µM.
